Test results reported in patent US20090093538A1, “Method for treating cancer” (priority 2007, published 2009).

Key:
[1] = human, in vivo
MSK1 = MSK1 phosphorylation, Western blot, MDA-MB-435 cells; format: cell-based, human; details: 10, 50, 100, 500 or 1000 nM, 4 hours
Protocol: (§1) After treatment the cells were lysized and used for Western blot analysis.
(§2) Samples were run on a SDS-PAGE gel and proteins were transferred onto a nitrocellulose membrane by a semi-dry transfer. Nitrocellulose was blocked with 5% skim milk in TBS with 0.5% Tween at room temperature for 1 hour and then probed with anti-p-MSK1 (Thr581) (#9595, Cell Signaling) antibody. The nitrocellulose was then probed with secondary antibodies, HRP-conjugated goat anti-rabbit IgG and HRP-conjugated horse anti-mouse IgG (#7074, #7076, Cell Signaling). LumiGLO reagent, 20× Peroxide (#7003, Cell Signaling) was used to visualize gel (see FIG. 36).
Samples were run on a SDS-PAGE gel and proteins were transferred onto a nitrocellulose membrane by a semi-dry transfer. Nitrocellulose was blocked with 5% skim milk in TBS with 0.5% Tween at room temperature for 1 hour and then probed with anti-p-MSK1 (Thr581) (#9595, Cell Signaling) antibody. Tubulin was used as a normalization control and was probed with Anti-Tubulin (T9026, Sigma) antibody.

Hsp70 [2] = experiment: Cell surface expression of Hsp70, HT29 cells (confocal microscopy); format: cell-based, human; details: HT29, 500 nM, 6 hrs
Protocol: After treatment, cells were rinsed one time in PBS then fixed in 2% Paraformaldehyde at room temperature for 20 minutes. Slides with the fixed cells were rinsed with PBS two times. Primary antibody mouse monoclonal anti-Hsp70 (Stressgen SPA-8 10) was diluted 1:100 in PBS and the slides were incubated 1 hour at 37° C. The slides were rinsed two times with PBS. Secondary antibody anti-mouse AlexaFluor 488 (Molecular Probes A-11001) was diluted 1:500 in PBS and the slides were incubated 30 min at 37° C. The slides were rinsed two times in PBS. DAPI (Molecular Probes D-3571) were diluted 1:10,000 in PBS and the slides were incubated at room temperature in dark for 5 min. The slides were rinsed two times in PBS, then once in deionized water and left to dry in dark until almost completely dry. Coverslips were mounted with Prolong Anti-fade Mounting Media (Molecular Probes P-748 1). The images were captured with a monochrome CCD camera SenSys (see FIGS. 27A-D and 28A-D) or by confocal microscopy (see FIG. 29A-E). In FIGS. 27A-D and 28A-D, the bright pink color on the surface of the MCF-7 cells (FIG. 27A-D) or CEM cells (FIG. 28A-D) indicates Hsp70 on the surface of the cells. In FIG. 29A-E the bright green color on the surface of the cell indicates Hsp70 on the surface of the HT29 cells.

HMEC and HRE cells = experiment: Lysis of target cells by mouse splenocytes (MTS assay); format: cell-based, human; details: non-cancerous HMEC and HRE cells; 0.1 or 0.5 μM, about 15 hours; splenocytes 10:1, 24 hours
Protocol: MDA-MB-435 cells were purchased from American Type culture collection. Human mammary epithelial (HMEC), human renal epithelial (HRE) cells and medium for maintaining the cells were obtained from Cambrex Bioproducts. Mouse splenocytes were isolated form CD1 nude mice (Jackson Lab). […] Mouse splenocytes were isolated from Nude mice and mixed with MDA-MB-435, HMEC and HRE cells at ratio of 10:1. The mixed cells were incubated at 37° C. for 24 hours in the tissue culture medium and MTS assay was performed to measure viability of the cells with an ELISA reader (DYNEX Technologies). Cytotoxicity (C) was calculated based on an equation below: C=[1-([…])]×100%

Hsp70 [3] = experiment: Hsp70 induction in tumor and non-tumor cells (Western blot); format: cell-based, human; details: 0.5 μM, 15 hours; MDA-MB-435 vs HMEC and HRE cells
Protocol: MDA-MB-435, human mammary epithelial (HMEC) […] (see Ross et al., “Systematic variation in gene expression patterns in human cancer cell lines,” Nat. Genet. (2000). 24(3):227-3.), and human renal epithelial (HRE) cells were seeded in 100 mm tissue culture plates at 1.5×10^6 cells/plate and incubated at 37° C. with 5% CO2 for several hours. […] After treatment the cells were lysized and used for Western blot analysis.
as §2, with “membrane.” for “membrane by a semi-dry transfer.”, “anti-Hsp70 (mouse IgG, sc-24, Santa Cruz)” for “anti-p-MSK1 (Thr581) (#9595, Cell Signaling)”, “25).” for “36).”

p38 kinase = experiment: p38 phosphorylation, Western blot, MDA-MB-435 cells; format: cell-based, human; details: 10, 50, 100, 500 or 1000 nM, 4 hours
Protocol: as §1
as §2, with “anti-phospho-p38 (Cell Signaling, #9216)” for “anti-p-MSK1 (Thr581) (#9595, Cell Signaling)”, “35).” for “36).”

Ramos cells = experiment: ROS generation, carboxy-H2DCFDA probe, flow cytometry; format: cell-based
Protocol: In these experiments, we monitored the production of ROS using the cell permeable Carboxy-H2DCFDA probe. When this probe is oxidized by ROS, it emits a green fluorescence that can be detected using flow cytometry or fluorescent microscopy. […] 25 μM carboxy-H2DCFDA (Invitrogen. C400) working solution was added to cover the cells, and the cells were incubate for 30 minutes at 37° C., protected from light. The cells were gently washed three times in warm HBSS/Ca/Mg. ROS levels, as determined by fluorescence intensity, were determined by flow cytometry (excitation at 495 nm, emission at 529 nm).
Tiron is a direct scavenger of ROS and is a potent inhibitor of oxidative stress.
Ramos cells were treated with elesclomol (500 nM) for the indicated times then washed gently once with warm HBSS/Ca/Mg (Invitrogen Carlsbad, Calif. Cat# 14025). 25 μM carboxy-H2DCFDA (Invitrogen Cat #C400) working solution was added to cover the cells and they were incubated for 30 minutes at 37° C., protected from light. The cells were gently washed three times in warm HBSS/Ca/Mg. ROS levels (fluorescence intensity) were determined by flow cytometry (excitation at 495 nm, emission at 529 nm) using a Becton Dickinson FACSCalibur equipped with CellQuest Pro software. Data is plotted as percent of elesclomol-treated cells with DCFDA fluorescence relative to DMSO (control) treated cells (see FIG. 49).

In the case of `CN(NC(=O)CC(=O)NN(C)C(=S)c1ccccc1)C(=S)c1ccccc1` [Compound 1], the serious side effects [1] is reported as “No serious side effects specifically attributable to Compound 1 were observed”, the “phosphorylation of MSK1” value (MSK1) is reported as “induces the phosphorylation of MSK1 in a dose dependent manner” and the “Hsp70 on the surface of cells” value (Hsp70 [2]) is reported as “bright green color on the surface of the cells indicating Hsp70”. For the same compound, the “increase in lysis compared to cells treated with DMSO alone” value (HMEC and HRE cells) was “only slightly increased”, the “induction of Hsp70” value (Hsp70 [3]) was “preferentially induces Hsp70 in MDA-MB-435 tumor cells compared to non-tumor HMEC, and HRE cells” and the “phosphorylation and activation of p38 kinase” value (p38 kinase) was “induces the phosphorylation and activation of p38 kinase in a dose dependent manner”. For the same compound, the “generation of ROS” value (Ramos cells; 0.5 μM, 24 hours) was “induced the generation of ROS” and the “earliest time at which induction of ROS was observed” value (Ramos cells; Ramos cells, time course) was 3 h.
